What was measured:
Caco-2 cells = test: Caco-2 permeability; format: in vitro ADME; settings: A-B, 50 µM, 120 min
IDO1 in HeLa cells = IDO1 in HeLa cells (Homo sapiens, UniProt P14902); test: HeLa cell-based IDO1/kynurenine assay; settings: calculated using HeLa pIC50; for LLE (lipophilic ligand efficiency): LLE = pIC50 – cLogP
CT26 tumor = CT26 tumor growth in immune-compromised mice; format: in vivo, mouse; settings: immune-compromised mice (nu/nu)
[1] = test system: CEREP panel of over 50 receptors and enzymes; test: CEREP panel
plasma kynurenine = test: PK/PD study in mice, plasma kynurenine; format: in vivo, mouse; settings: wild-type mice, once daily oral dosing at 50 mg/kg
[2] = Allometric scaling, predicted human dose; settings: allometric scaling to cover the WB IC50 at trough
[3] = 28-day IND toxicology study in mice; format: in vivo, mouse
[4] = 28-day IND toxicology study in dogs; format: in vivo, dog

IDO1 in HeLa cells, sequence (P14902 whole entry): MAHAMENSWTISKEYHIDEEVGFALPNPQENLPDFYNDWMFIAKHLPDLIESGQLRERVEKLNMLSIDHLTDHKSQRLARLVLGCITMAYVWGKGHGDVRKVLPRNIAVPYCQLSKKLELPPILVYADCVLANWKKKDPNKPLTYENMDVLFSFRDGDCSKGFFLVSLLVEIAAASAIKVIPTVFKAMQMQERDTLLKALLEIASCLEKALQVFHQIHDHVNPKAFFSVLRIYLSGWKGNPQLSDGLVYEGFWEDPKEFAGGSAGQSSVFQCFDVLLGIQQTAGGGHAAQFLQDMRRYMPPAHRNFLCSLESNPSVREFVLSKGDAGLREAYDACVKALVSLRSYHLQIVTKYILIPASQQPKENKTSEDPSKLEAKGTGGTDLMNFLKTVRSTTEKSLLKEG

SMILES	Caco2 Pm (Caco-2 cells)	LE (ligand efficiency) (IDO1 in HeLa cells)	other results
COCCNc1nonc1/C(=N/O)Nc1ccc(F)c(Br)c1 [Compound 4a]	44 × (10)^−6 cm/s	0.45	
OCCNc1nonc1/C(=N/O)Nc1ccc(F)c(Br)c1 [Compound 4b]	31 × (10)^−6 cm/s	0.51	LLE (lipophilic ligand efficiency) (IDO1 in HeLa cells): 5.8
NCCNc1nonc1/C(=N/O)Nc1ccc(F)c(Br)c1 [Compound 4c]	1.8 × (10)^−6 cm/s	0.47	
CC(=O)NCCNc1nonc1/C(=N/O)Nc1ccc(F)c(Br)c1 [Compound 4d]	19 × (10)^−6 cm/s	0.45	
CS(=O)(=O)NCCNc1nonc1C(=NO)Nc1ccc(F)c(Br)c1 [Compound 4e]			LLE (lipophilic ligand efficiency) (IDO1 in HeLa cells): 5.8
NS(=O)(=O)NCCNc1nonc1C(=NO)Nc1ccc(F)c(Br)c1 [Compound 4f, epacadostat]			tumor growth inhibition, treated vs control animals (CT26 tumor): no difference; in vitro toxicology result, CEREP panel [1]: clean; plasma kynurenine level reached (basal level of IDO null mice) (plasma kynurenine): ~400 nM; predicted oral dosing in humans [2]: 50 mg twice-a-day; tolerability [3]: well-tolerated; tolerability [4]: well-tolerated
NS(=O)(=O)NCCNc1nonc1C(=NO)Nc1ccc(F)c(Cl)c1 [Compound 4g]	4.3 × (10)^−6 cm/s		

— paper PMC5430407 (ACS Medicinal Chemistry Letters, 2017)
